# Results reported in US4948807A, “Phenyl carbamates” (priority 1985, dated 1990).
# Read-outs that look alike come from different tables or passages of the source.
# What was measured:
# [1] = cited from earlier work; for penetration of the central nervous system: in vivo; for absorption from the gastro-intestinal tract: oral
# acetylcholinesterase [2] = target: T1, acetylcholinesterase (Mus musculus, UniProt P21836); assay: biochemical; type: biochemical
# T1 construct: A solubilized preparation of acetylcholinesterase was prepared from mouse whole brain (minus cerebellum); from tissue; host or cells: mouse whole brain (minus cerebellum), membrane pellet solubilized with 1% Triton
# T1 sequence (P21836 32-614): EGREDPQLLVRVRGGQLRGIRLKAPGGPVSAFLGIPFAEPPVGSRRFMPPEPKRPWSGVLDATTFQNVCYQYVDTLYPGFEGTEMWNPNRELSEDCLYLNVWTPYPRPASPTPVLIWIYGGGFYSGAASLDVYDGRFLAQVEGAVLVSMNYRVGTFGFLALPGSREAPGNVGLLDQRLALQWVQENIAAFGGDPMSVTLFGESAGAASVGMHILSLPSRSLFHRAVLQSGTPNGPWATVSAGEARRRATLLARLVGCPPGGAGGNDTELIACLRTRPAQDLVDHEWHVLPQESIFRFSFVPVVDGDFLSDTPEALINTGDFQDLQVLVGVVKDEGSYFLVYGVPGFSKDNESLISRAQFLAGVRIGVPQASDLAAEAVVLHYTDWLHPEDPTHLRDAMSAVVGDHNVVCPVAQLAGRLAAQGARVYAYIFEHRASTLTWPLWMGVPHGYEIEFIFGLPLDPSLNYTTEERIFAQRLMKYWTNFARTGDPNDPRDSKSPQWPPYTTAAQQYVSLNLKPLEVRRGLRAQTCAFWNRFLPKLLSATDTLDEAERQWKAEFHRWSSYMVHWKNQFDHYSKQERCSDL
# Procedure: A solubilized preparation of acetylcholinesterase was prepared from mouse whole brain (minus cerebellum). The brain was homogenized with (100 mg/ml) phosphate buffer; pH 8.0, centrifuged, the supernatant discarded, and the pellet mixed with a similar volume as above of buffer pH 8.0 plus 1% Triton; mixed, centrifuged and the supernatant which contained most of the solubilized enzyme, was used for the subsequent determinations of anticholinesterase activity.
# The activity of the enzyme (rate of hydrolysis of substrate, acetylthiocholine) was measured using at least 4 different concentrations of substrate, and at least 3 different concentrations of each inhibitor. The enzyme was incubated with inhibitor for periods ranging for 2-180 mins. at 37° C., substrate was then added, and its rate of hydrolysis measured by the spectrophotometric method of Ellman et al. (1961).
# [3] = tested on: brain acetylcholinesterase; conditions: for Relative potency to physostigmine after oral administration / % cholinesterase inhibition 3 hours after s.c. administration / Relative potency to physostigmine after subcut. (s.c.) administration: mouse brain; for Relative potency to physostigmine after oral administration / Relative potency to physostigmine after subcut. (s.c.) administration: physostigmine = 100; for relative in vivo activity compared to physostigmine versus in vitro data: comparison of Table 1 with Table 2; for duration of brain acetylcholinesterase inhibition compared with physostigmine or miotine: parenteral administration
# Procedure: The effect of each compound on brain acetylcholinesterase in vivo was measured, after subcutaneous or oral administration to mice. Animals were sacrificed, at different times ranging from 0.25-8 hours after drug administration. The brain was rapidly removed, and the enzyme acetylcholinesterase extracted and solubilized with 0.1% Triton, and its ability to hydrolyse acetylthiocholine assessed as described above (in vitro experiments), in comparison with the enzyme removed from mice injected with normal saline.
# [4] = in vivo; cited from earlier work
# in vivo = conditions: for selectivity ratio / LD50 at 3 h: mouse, in vivo; for protection by atropine against lethality: atropine pretreatment
# Procedure: Mice were given one of at least three different doses of each compound, orally or subcutaneously, a minimum of 10 mice allotted to each dose. The number of animals which died at each dose within 3 hours was determined.
# This experiment was repeated after the animals had been pretreated with atropine sulphate, which blocks both peripheral and central muscarinic receptors.
# What is important is the safety of the drugs and the presence and severity of side effects that may occur at therapeutic doses. A commonly-used measure of drug safety is the therapeutic index--or LD50 /ED50 [formula]
# It is assumed that the therapeutic effect of these anticholinesterase agents results from an elevation of brain cholinergic activity. This in turn, should be related to the degree of inhibition of acetylcholinesterase. For the purpose of the computation of the denominator of the therapeutic ratio, there is used the dose of drug that inhibits the activity of acetylcholinesterase by 50%. […] The numerator is the dose found to kill 50% of the animals within […] of a subcutaneous injection.
# [5] = eye drops; cited from earlier work
# acetylcholinesterase [6] = conditions: compared with the monoquaternary molecules; cited from earlier work
# [7] = tested on: respiratory depressant effects of morphine; type: in vivo; conditions: rabbits; for duration of significant antagonism of the respiratory depressant effects of morphine: depending on drug and dose
# Procedure: Different doses of the carbamate compounds were injected intravenously with morphine in rabbits Respiration rate, arterial blood gas tensions and pH were monitored continuously before and after drug administration for 4-5 hours. In another series of experiments the effect of the anticholinesterase drugs was assessed on the analgesic effect of opiates in rabbits after application of a nociceptive stimulus, i.e. electrical stimulation of the sciatic nerve.
# [8] = tested on: acetylcholinesterase in the cerebro-spinal fluid; conditions: patients with Alzheimer's disease; Thal et al. 1983; cited from earlier work
# [9] = in vivo; cited from earlier work; remark: listed apart in the source
# tardive dyskinesias = conditions: injected intravenously; cited from earlier work
# Huntingdon's chorea = conditions: injections; cited from earlier work
# [10] = incubation of enzyme with inhibitor, 37° C.
# [11] = Ratio whose head is drawing 10 (Table 3; oral LD50 compared with s.c. LD50), mice, oral versus s.c.
# [12] = sc, Therapeutic ratio LD50/ED50 s.c., mice, ED50 = dose inhibiting brain acetylcholinesterase by 50%
# [13] = Degree of protection afforded by pretreatment with atropine, ratio of LD50 after pretreatment with atropine sulphate 5 mg/kg to LD50 of drug alone
Compound,penetration of the central nervous system [1],absorption from the gastro-intestinal tract [1],IC50 (acetylcholinesterase [2]),Time of peak activity (acetylcholinesterase [2]; [10]),Relative potency to physostigmine after oral administration ([3]; oral),% cholinesterase inhibition 3 hours after s.c. administration [3],Relative potency to physostigmine after subcut. (s.c.) administration [3],selectivity ratio (in vivo; [11]),LD50 at 3 h (in vivo; sc),selectivity ratio (in vivo; [12]),relative in vivo activity compared to physostigmine versus in vitro data [3],duration of significant antagonism of the respiratory depressant effects of morphine [7],selectivity ratio (in vivo; [13]),also measured
CN(C)C(=O)Oc1ccc[n+](C)c1 [pyridostigmine],do not penetrate the central nervous system to any significant extent,only poorly absorbed from the gastro-intestinal tract,,,,,,,,,,,,
"CNC(=O)Oc1cccc(C(C)N(C)C)c1 (stereo not drawn) [Miotine, reference compound]",,,13 nM,30 min,300,5%,100,1.2,4.5 µmol/kg,4.9,,,,insecticidal activity [4]: claimed to be an insecticide; myopic activity [5]: myopic agent
CC[N+](CC)(CCNC(=O)C(=O)NCC[N+](CC)(CC)Cc1ccccc1Cl)Cc1ccccc1Cl [Ambenonium],,,,,,,,,,,,,,selectivity for acetylcholinesterase over butyrylcholinesterase (acetylcholinesterase [6]): more selective inhibitors of acetylcholinesterase than butyrylcholinesterase
"C=CCNC(=O)Oc1cccc(C(C)N(C)C)c1 (stereo not drawn) [RA14, N-allyl-3-[1-(dimethylamino)ethyl]phenyl carbamate]",,,430 nM,120 min,22,35%,15,4.4,69 µmol/kg,11.5,relatively more active in vivo compared to physostigmine than one would expect from the in vitro data,3 to 5 h,8,"duration of significant brain enzyme inhibition (>30%) ([3]; at ED50 dose): more than 3 hours; duration of brain acetylcholinesterase inhibition compared with physostigmine or miotine ([3]; in words): significantly longer duration; protection by atropine against lethality (in vivo; mice, in words): considerably greater protection; selectivity ratio (in vivo; decrease of acute toxicity (lethality) by the antidote atropine, mice, atropine): > 8"
"CNC(=O)Oc1ccc2c(c1)[C@]1(C)CCN(C)[C@@H]1N2C [Physostigmine, reference compound]",readily enters the brain,irregular and unpredictable,11 nM,,,,,,3 µmol/kg,,,,,"Time of peak activity (acetylcholinesterase [2]): 30 min; block of acetylcholinesterase in cerebro-spinal fluid at dose giving maximum improvement in short term memory [8]: 50%; duration of significant brain enzyme inhibition (>30%) ([3]; mouse, in vivo): less than 2 hours; half-life [9]: 20 to 40 min; duration of antagonism of the respiratory depressant effect of morphine ([7]; 0.1-0.2 mg/kg): 30 to 60 min; muscle fasciculations ([7]; with morphine): fasciculations are marked at the higher dose; improvement of tardive dyskinesias (tardive dyskinesias): significant but short lived improvement in a proportion of patients; benefit in Huntingdon's chorea (Huntingdon's chorea): some benefit"
CC(c1cccc(OC(=O)N(C)C)c1)N(C)C (stereo not drawn) [RA10],,,27 nM,120 min,92,7%,81,9.7,14 µmol/kg,12.7,relatively more active in vivo compared to physostigmine than one would expect from the in vitro data,3 to 5 h,5,"protection by atropine against lethality (in vivo; mice, in words): considerably greater protection; therapeutic ratio (safety margin) compared with physostigmine (in vivo; mice, s.c., in words): significantly higher than of physostigmine"
CN(C)C(=O)Oc1cccc([N+](C)(C)C)c1 [neostigmine],do not penetrate the central nervous system to any significant extent,only poorly absorbed from the gastro-intestinal tract,,,,,,,,,,,,
CN(CCCCCCCCCCN(C)C(=O)Oc1cccc([N+](C)(C)C)c1)C(=O)Oc1cccc([N+](C)(C)C)c1 [Demacarium],,,,,,,,,,,,,,selectivity for acetylcholinesterase over butyrylcholinesterase (acetylcholinesterase [6]): more selective inhibitors of acetylcholinesterase than butyrylcholinesterase
"CCNC(=O)Oc1cccc(C(C)N(C)C)c1 (stereo not drawn) [RA6, N-ethyl-3[1-(dimethylamino)ethyl]phenyl carbamate]",,,400 nM,120 min,19,35%,11,2.1,96 µmol/kg,11.9,relatively more active in vivo compared to physostigmine than one would expect from the in vitro data,3 to 5 h,2.6,"duration of significant brain enzyme inhibition (>30%) ([3]; at ED50 dose): more than 3 hours; brain enzyme inhibition after 7 hours ([3]; at ED50 dose, 7 hours): 36%; bioavailability after oral administration compared with physostigmine ([3]; oral, in words): better bioavailability after oral administration than physostigmine; duration of brain acetylcholinesterase inhibition compared with physostigmine or miotine ([3]; in words): significantly longer duration; absorption from the gastro-intestinal tract compared with physostigmine (in vivo; from oral versus s.c. LD50): more efficiently absorbed from the gastro-intestinal tract than is physostigmine"
